Laboratory results as given in ChEMBL document CHEMBL1909046, “DrugMatrix in vitro pharmacology data”.

Assays:
Melanocortin receptor 5 = Melanocortin receptor 5 (Homo sapiens, UniProt P33032); type: cell membranes, HEK293, Membrane; further: in other assays of this panel Not Active means under 50% inhibition at 10 µM
[1] = target: T1, Neuropeptide Y receptor type 1 (Homo sapiens, UniProt P25929); type: cell membranes, Membrane; details: sk-n-mc; further: in other assays of this panel Not Active means under 50% inhibition at 10 µM
T1 sequence (P25929 whole entry): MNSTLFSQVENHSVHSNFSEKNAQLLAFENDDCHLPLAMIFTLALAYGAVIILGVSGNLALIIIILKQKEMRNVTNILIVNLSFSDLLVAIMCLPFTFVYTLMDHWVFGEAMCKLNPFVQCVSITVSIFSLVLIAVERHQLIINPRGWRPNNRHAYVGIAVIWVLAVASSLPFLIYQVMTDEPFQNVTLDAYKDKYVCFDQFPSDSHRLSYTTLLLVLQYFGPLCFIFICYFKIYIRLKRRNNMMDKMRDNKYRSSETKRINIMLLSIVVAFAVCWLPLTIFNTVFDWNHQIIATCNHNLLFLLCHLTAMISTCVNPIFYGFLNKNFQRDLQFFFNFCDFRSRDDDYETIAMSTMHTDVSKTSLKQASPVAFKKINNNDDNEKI

[2] = target: Platelet-activating factor receptor (Homo sapiens, UniProt P25105); type: tissue-based; further: in other assays of this panel Not Active means under 50% inhibition at 10 µM
[3] = target: Delta-type opioid receptor (Homo sapiens, UniProt P41143); type: cell membranes, HEK293, Membrane; details: hek293; further: in other assays of this panel Not Active means under 50% inhibition at 10 µM
Cytochrome P450 2A6 = target: T2, Cytochrome P450 2A6 (Homo sapiens, UniProt P11509); details: bti-tn-5b1-4; further: in other assays of this panel Not Active means under 50% inhibition at 10 µM
T2 sequence (P11509 whole entry): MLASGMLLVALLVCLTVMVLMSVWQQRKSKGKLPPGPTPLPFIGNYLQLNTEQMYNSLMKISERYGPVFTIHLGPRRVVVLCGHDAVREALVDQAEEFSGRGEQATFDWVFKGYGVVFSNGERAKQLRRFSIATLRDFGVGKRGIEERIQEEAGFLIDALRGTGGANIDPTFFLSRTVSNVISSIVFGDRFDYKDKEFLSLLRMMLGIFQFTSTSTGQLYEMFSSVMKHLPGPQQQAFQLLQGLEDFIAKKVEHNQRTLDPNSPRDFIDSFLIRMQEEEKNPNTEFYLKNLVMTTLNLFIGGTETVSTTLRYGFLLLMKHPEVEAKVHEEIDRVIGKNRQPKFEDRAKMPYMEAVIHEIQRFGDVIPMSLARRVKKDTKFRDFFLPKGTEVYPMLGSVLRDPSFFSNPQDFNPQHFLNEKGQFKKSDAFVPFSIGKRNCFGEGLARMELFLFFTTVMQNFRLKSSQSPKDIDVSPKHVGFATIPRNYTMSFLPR

[4] = DRUGMATRIX: Phorbol Ester radioligand binding (ligand: [3H] PDBu); type: cell membranes, Mus musculus, ICR, Brain, Membrane; details: Not Active = under 50% inhibition at 10 µM
Estrogen receptor beta = Estrogen receptor beta (Homo sapiens, UniProt Q92731); details: sf9; further: in other assays of this panel Not Active means under 50% inhibition at 10 µM
Mu-type opioid receptor = Mu-type opioid receptor (Homo sapiens, UniProt P35372); test: DRUGMATRIX: Opiate mu (OP3, MOP) radioligand binding (ligand: [3H] Diprenorphine); type: cell membranes, CHO-K1, Membrane; details: cho-k1; Not Active = under 50% inhibition at 10 µM
Chain of Mu-type opioid receptor (P35372 whole entry): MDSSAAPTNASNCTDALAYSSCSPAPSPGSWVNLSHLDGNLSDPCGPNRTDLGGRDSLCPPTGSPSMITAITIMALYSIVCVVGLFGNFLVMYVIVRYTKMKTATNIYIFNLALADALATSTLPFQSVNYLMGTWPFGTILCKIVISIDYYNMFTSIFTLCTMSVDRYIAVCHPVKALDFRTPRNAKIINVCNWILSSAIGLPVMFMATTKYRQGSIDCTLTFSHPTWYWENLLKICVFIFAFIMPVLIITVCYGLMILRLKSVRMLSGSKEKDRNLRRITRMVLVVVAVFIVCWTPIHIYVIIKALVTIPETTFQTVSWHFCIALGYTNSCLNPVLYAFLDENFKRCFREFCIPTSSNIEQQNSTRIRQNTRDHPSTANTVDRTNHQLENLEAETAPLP

Chain of Melanocortin receptor 5 (P33032 whole entry): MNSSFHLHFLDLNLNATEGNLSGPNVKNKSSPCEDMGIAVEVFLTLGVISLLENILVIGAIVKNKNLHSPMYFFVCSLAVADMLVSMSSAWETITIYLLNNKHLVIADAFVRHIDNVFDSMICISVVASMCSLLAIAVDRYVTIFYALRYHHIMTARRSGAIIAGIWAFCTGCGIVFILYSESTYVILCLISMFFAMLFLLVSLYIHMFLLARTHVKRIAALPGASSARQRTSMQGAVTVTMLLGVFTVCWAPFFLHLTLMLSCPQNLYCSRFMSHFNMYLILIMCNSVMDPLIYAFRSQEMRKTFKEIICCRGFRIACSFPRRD
Chain of Delta-type opioid receptor (P41143 whole entry): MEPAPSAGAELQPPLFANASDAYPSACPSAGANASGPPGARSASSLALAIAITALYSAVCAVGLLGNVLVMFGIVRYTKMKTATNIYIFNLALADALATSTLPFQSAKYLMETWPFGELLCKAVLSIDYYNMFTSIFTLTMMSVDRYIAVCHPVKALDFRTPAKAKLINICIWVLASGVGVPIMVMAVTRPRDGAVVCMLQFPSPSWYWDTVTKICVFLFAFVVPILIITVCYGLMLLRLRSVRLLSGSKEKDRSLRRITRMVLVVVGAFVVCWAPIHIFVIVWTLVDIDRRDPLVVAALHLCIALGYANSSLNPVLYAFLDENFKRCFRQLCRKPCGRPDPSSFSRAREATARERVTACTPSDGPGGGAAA
Chain of Platelet-activating factor receptor (P25105 whole entry): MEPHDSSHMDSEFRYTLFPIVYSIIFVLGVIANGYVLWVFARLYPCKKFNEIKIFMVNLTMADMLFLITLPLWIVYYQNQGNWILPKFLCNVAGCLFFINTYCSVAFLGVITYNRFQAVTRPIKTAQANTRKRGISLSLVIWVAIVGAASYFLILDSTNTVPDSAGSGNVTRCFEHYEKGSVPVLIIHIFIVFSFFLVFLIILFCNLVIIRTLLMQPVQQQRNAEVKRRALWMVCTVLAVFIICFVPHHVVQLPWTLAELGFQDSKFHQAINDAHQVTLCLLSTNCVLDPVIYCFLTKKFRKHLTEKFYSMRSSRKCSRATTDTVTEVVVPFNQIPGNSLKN
Chain of Estrogen receptor beta (Q92731 whole entry): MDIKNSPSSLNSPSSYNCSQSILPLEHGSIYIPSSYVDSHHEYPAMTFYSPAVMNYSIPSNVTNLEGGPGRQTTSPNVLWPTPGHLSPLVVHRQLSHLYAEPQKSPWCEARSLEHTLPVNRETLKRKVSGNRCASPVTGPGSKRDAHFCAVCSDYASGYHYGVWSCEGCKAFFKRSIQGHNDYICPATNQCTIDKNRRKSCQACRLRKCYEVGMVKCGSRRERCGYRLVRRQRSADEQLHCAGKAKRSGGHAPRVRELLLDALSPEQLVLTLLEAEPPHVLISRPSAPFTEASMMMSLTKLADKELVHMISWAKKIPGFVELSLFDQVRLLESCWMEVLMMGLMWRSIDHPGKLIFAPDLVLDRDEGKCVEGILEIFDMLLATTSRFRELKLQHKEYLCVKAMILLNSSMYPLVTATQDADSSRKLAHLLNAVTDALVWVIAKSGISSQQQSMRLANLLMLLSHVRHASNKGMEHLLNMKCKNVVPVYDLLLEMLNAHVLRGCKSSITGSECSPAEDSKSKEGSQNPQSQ

Structure (SMILES) | IC50 (Melanocortin receptor 5; hek293) | IC50 [1] | IC50 [2] | IC50 [3] | IC50 (Cytochrome P450 2A6) | Ki (Cytochrome P450 2A6) | IC50 [4] | Ki [4] | IC50 (Estrogen receptor beta) | IC50 (Mu-type opioid receptor) | Ki (Melanocortin receptor 5; hek293) | Ki [1] | Ki [2] | Ki [3] | Ki (Estrogen receptor beta) | IC50 (Melanocortin receptor 5; read-out: IC50) [µM] | Ki (Melanocortin receptor 5; read-out: Ki) [µM]
Cc1ccc2cc3c(ccc4ccccc43)c3c2c1CC3 [3-METHYLCHOLANTHRENE] | Not Active | Not Active | Not Active | Not Active | Not Active | Not Active | Not Active | Not Active | Not Active |  |  |  |  |  |  |  | 
Nc1nc2c(ncn2COCCO)c(=O)[nH]1 [ACYCLOVIR] | Not Active | Not Active | Not Active | Not Active | Not Active | Not Active | Not Active | Not Active |  | Not Active |  |  |  |  |  |  | 
NCCCCCC(=O)O [AMINOCAPROIC ACID] | Not Active | Not Active | Not Active | Not Active | Not Active | Not Active | Not Active | Not Active |  | Not Active |  |  |  |  |  |  | 
CCC1(c2ccc(N)cc2)CCC(=O)NC1=O (stereo unspecified) [AMINOGLUTETHIMIDE] | Not Active | Not Active | Not Active | Not Active | Not Active | Not Active | Not Active | Not Active |  | Not Active |  |  |  |  |  |  | 
Cc1ccc(/N=C/N(C)/C=N/c2ccc(C)cc2C)c(C)c1 [AMITRAZ] | Not Active | Not Active | Not Active | Not Active | Not Active | Not Active | Not Active | Not Active | Not Active |  |  |  |  |  |  |  | 
COc1ccc(C[C@H]2NC[C@H](O)[C@H]2OC(C)=O)cc1 [ANISOMYCIN] | Not Active | Not Active | Not Active | Not Active | Not Active | Not Active | Not Active | Not Active | Not Active |  | Not Active | Not Active | Not Active | Not Active | Not Active |  | 
Nc1ncn([C@@H]2O[C@H](CO)[C@@H](O)[C@H]2O)c(=O)n1 [AZACITIDINE] | Not Active | Not Active | Not Active | Not Active | Not Active | Not Active | Not Active | Not Active |  | Not Active |  |  |  |  |  |  | 
CNCCc1ccccn1 [BETAHISTINE] | Not Active | Not Active | Not Active | Not Active | Not Active | Not Active | Not Active | Not Active |  | Not Active |  |  |  |  |  |  | 
Cc1ccc(-c2cc(C(F)(F)F)nn2-c2ccc(S(N)(=O)=O)cc2)cc1 [CELECOXIB] | Not Active | Not Active | Not Active | Not Active | Not Active | Not Active | Not Active | Not Active |  | Not Active |  |  |  |  |  |  | 
O=C(O)CCCc1ccc(N(CCCl)CCCl)cc1 [CHLORAMBUCIL] | Not Active | Not Active | Not Active | Not Active | Not Active | Not Active | Not Active | Not Active |  |  |  |  |  |  |  |  | 
CN(C)CCCN1c2ccccc2Sc2ccc(Cl)cc21 [CHLORPROMAZINE] |  | Not Active | Not Active |  | Not Active | Not Active | Not Active | Not Active | Not Active |  |  |  |  |  |  | 7.62 | 7.15
C[C@H](CCC(=O)O)[C@H]1CC[C@H]2[C@@H]3[C@H](O)C[C@@H]4C[C@H](O)CC[C@]4(C)[C@H]3C[C@H](O)[C@]12C [CHOLIC ACID] | Not Active | Not Active | Not Active | Not Active | Not Active | Not Active | Not Active | Not Active |  | Not Active |  |  |  |  |  |  | 
CC1=C2C(=CO[C@H](C)[C@H]2C)C(O)=C(C(=O)O)C1=O [CITRININ] | Not Active | Not Active | Not Active | Not Active | Not Active | Not Active | Not Active | Not Active | Not Active |  |  |  |  |  |  |  | 
